Measured values published in PubChem BioAssay (NCI).
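Assay format: 96-well plates, 48-hour exposure. GI50 is the concentration that inhibits growth by half. Definition used: TGI = concentration required for complete inhibition of growth.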

Columns and labels:
Assay in all cases: inhibition of tumour cell growth, NCI panel, 48 h
786-0 renal = tested on: 786-0 renal
A498 renal = tested on: A498 renal
A549 NSCLC = tested on: A549 NSCLC
ACHN renal = tested on: ACHN renal
BT-549 breast = tested on: BT-549 breast
CAKI-1 renal = tested on: CAKI-1 renal
CCRF-CEM leukemia = tested on: CCRF-CEM leukemia
COLO 205 colon = tested on: COLO 205 colon
DU-145 prostate = tested on: DU-145 prostate
EKVX NSCLC = tested on: EKVX NSCLC
HCC-2998 colon = tested on: HCC-2998 colon
HCT-116 colon = tested on: HCT-116 colon
HCT-15 colon = tested on: HCT-15 colon
HL-60(TB) leukemia = tested on: HL-60(TB) leukemia
HOP-62 NSCLC = tested on: HOP-62 NSCLC
HOP-92 NSCLC = tested on: HOP-92 NSCLC
HS 578T breast = tested on: HS 578T breast
HT29 colon = tested on: HT29 colon
IGROV1 ovarian = tested on: IGROV1 ovarian
K-562 leukemia = tested on: K-562 leukemia
KM12 colon = tested on: KM12 colon
LOX IMVI melanoma = tested on: LOX IMVI melanoma
M14 melanoma = tested on: M14 melanoma
MALME-3M melanoma = tested on: MALME-3M melanoma
MCF7 breast = tested on: MCF7 breast
MDA-MB-231 breast = tested on: MDA-MB-231 breast
MDA-MB-435 = tested on: MDA-MB-435
NCI-H226 lung = tested on: NCI-H226 lung
NCI-H23 lung = tested on: NCI-H23 lung
NCI-H460 lung = tested on: NCI-H460 lung
NCI-H522 lung = tested on: NCI-H522 lung
NCI/ADR-RES ovarian = tested on: NCI/ADR-RES ovarian
OVCAR-3 ovarian = tested on: OVCAR-3 ovarian
OVCAR-4 ovarian = tested on: OVCAR-4 ovarian
OVCAR-5 ovarian = tested on: OVCAR-5 ovarian
OVCAR-8 ovarian = tested on: OVCAR-8 ovarian
PC-3 prostate = tested on: PC-3 prostate
RPMI-8226 leukemia = tested on: RPMI-8226 leukemia
RXF 393 renal = tested on: RXF 393 renal
SF-268 CNS = tested on: SF-268 CNS
SF-295 CNS = tested on: SF-295 CNS
SF-539 CNS = tested on: SF-539 CNS
SK-MEL-2 melanoma = tested on: SK-MEL-2 melanoma
SK-MEL-28 melanoma = tested on: SK-MEL-28 melanoma
SK-MEL-5 melanoma = tested on: SK-MEL-5 melanoma
SK-OV-3 ovarian = tested on: SK-OV-3 ovarian
SN12C renal = tested on: SN12C renal
SNB-19 CNS = tested on: SNB-19 CNS
SNB-75 CNS = tested on: SNB-75 CNS
SR leukemia = tested on: SR leukemia
SW-620 colon = tested on: SW-620 colon
T-47D breast = tested on: T-47D breast
TK-10 renal = tested on: TK-10 renal
U251 CNS = tested on: U251 CNS
UACC-257 melanoma = tested on: UACC-257 melanoma
UACC-62 melanoma = tested on: UACC-62 melanoma
UO-31 renal = tested on: UO-31 renal

C#C[C@]1(O)CC[C@H]2[C@@H]3CC=C4c5sc(-c6cccc(O)c6)nc5CC[C@]4(C)[C@H]3CC[C@@]21C
GI50 (786-0 renal): 386 nM
TGI (786-0 renal): 1880 nM
GI50 (A498 renal): 15200 nM
TGI (A498 renal): 32500 nM
GI50 (A549 NSCLC): 2570 nM
TGI (A549 NSCLC): 11000 nM
GI50 (ACHN renal): 687 nM
TGI (ACHN renal): 6720 nM
GI50 (BT-549 breast): 1070 nM
TGI (BT-549 breast): 3470 nM
GI50 (CAKI-1 renal): 2250 nM
TGI (CAKI-1 renal): 5150 nM
GI50 (CCRF-CEM leukemia): 339 nM
TGI (CCRF-CEM leukemia): > 100000 nM
GI50 (COLO 205 colon): 5410 nM
TGI (COLO 205 colon): 20800 nM
GI50 (DU-145 prostate): 2450 nM
TGI (DU-145 prostate): 17500 nM
GI50 (EKVX NSCLC): 2500 nM
TGI (EKVX NSCLC): 10700 nM
GI50 (HCC-2998 colon): 1810 nM
TGI (HCC-2998 colon): 5120 nM
GI50 (HCT-116 colon): 993 nM
TGI (HCT-116 colon): 3000 nM
GI50 (HCT-15 colon): 505 nM
TGI (HCT-15 colon): 1940 nM
GI50 (HL-60(TB) leukemia): 835 nM
TGI (HL-60(TB) leukemia): 6120 nM
GI50 (HOP-62 NSCLC): 1480 nM
TGI (HOP-62 NSCLC): 4390 nM
GI50 (HOP-92 NSCLC): 1450 nM
TGI (HOP-92 NSCLC): 3070 nM
GI50 (HS 578T breast): 207 nM
TGI (HS 578T breast): 642 nM
GI50 (HT29 colon): 3170 nM
TGI (HT29 colon): 10800 nM
GI50 (IGROV1 ovarian): 2980 nM
TGI (IGROV1 ovarian): 10300 nM
GI50 (K-562 leukemia): 506 nM
TGI (K-562 leukemia): > 100000 nM
GI50 (KM12 colon): 1150 nM
TGI (KM12 colon): 5000 nM
GI50 (LOX IMVI melanoma): 269 nM
TGI (LOX IMVI melanoma): 1260 nM
GI50 (M14 melanoma): 252 nM
TGI (M14 melanoma): 671 nM
GI50 (MALME-3M melanoma): 421 nM
TGI (MALME-3M melanoma): 2980 nM
GI50 (MCF7 breast): 1560 nM
TGI (MCF7 breast): 4390 nM
GI50 (MDA-MB-231 breast): 1050 nM
TGI (MDA-MB-231 breast): 4100 nM
GI50 (MDA-MB-435): 1320 nM
TGI (MDA-MB-435): 3940 nM
GI50 (NCI-H226 lung): 5250 nM
TGI (NCI-H226 lung): 25000 nM
GI50 (NCI-H23 lung): 1550 nM
TGI (NCI-H23 lung): 3670 nM
GI50 (NCI-H460 lung): 2570 nM
TGI (NCI-H460 lung): 7130 nM
GI50 (NCI-H522 lung): 1480 nM
TGI (NCI-H522 lung): 3580 nM
GI50 (NCI/ADR-RES ovarian): 1950 nM
TGI (NCI/ADR-RES ovarian): 5580 nM
GI50 (OVCAR-3 ovarian): 2480 nM
TGI (OVCAR-3 ovarian): 7460 nM
GI50 (OVCAR-4 ovarian): 2730 nM
TGI (OVCAR-4 ovarian): 9520 nM
GI50 (OVCAR-5 ovarian): 2250 nM
TGI (OVCAR-5 ovarian): 5930 nM
GI50 (OVCAR-8 ovarian): 2100 nM
TGI (OVCAR-8 ovarian): > 100000 nM
GI50 (PC-3 prostate): 357 nM
TGI (PC-3 prostate): 1720 nM
GI50 (RPMI-8226 leukemia): 157 nM
TGI (RPMI-8226 leukemia): 725 nM
GI50 (RXF 393 renal): 177 nM
TGI (RXF 393 renal): 449 nM
GI50 (SF-268 CNS): 1990 nM
TGI (SF-268 CNS): 17500 nM
GI50 (SF-295 CNS): 178 nM
TGI (SF-295 CNS): 437 nM
GI50 (SF-539 CNS): 151 nM
TGI (SF-539 CNS): 538 nM
GI50 (SK-MEL-2 melanoma): 528 nM
TGI (SK-MEL-2 melanoma): 2390 nM
GI50 (SK-MEL-28 melanoma): 236 nM
TGI (SK-MEL-28 melanoma): 640 nM
GI50 (SK-MEL-5 melanoma): 1650 nM
TGI (SK-MEL-5 melanoma): 3060 nM
GI50 (SK-OV-3 ovarian): 2070 nM
TGI (SK-OV-3 ovarian): 6830 nM
GI50 (SN12C renal): 2300 nM
TGI (SN12C renal): 9980 nM
GI50 (SNB-19 CNS): 1260 nM
TGI (SNB-19 CNS): 4280 nM
GI50 (SNB-75 CNS): 319 nM
TGI (SNB-75 CNS): 6100 nM
GI50 (SR leukemia): 460 nM
TGI (SR leukemia): > 100000 nM
GI50 (SW-620 colon): 653 nM
TGI (SW-620 colon): 2360 nM
GI50 (T-47D breast): 2580 nM
TGI (T-47D breast): 7270 nM
GI50 (TK-10 renal): 2760 nM
TGI (TK-10 renal): 9190 nM
GI50 (U251 CNS): 688 nM
TGI (U251 CNS): 2960 nM
GI50 (UACC-257 melanoma): 1860 nM
TGI (UACC-257 melanoma): 4630 nM
GI50 (UACC-62 melanoma): 2300 nM
TGI (UACC-62 melanoma): 5550 nM
GI50 (UO-31 renal): 460 nM
TGI (UO-31 renal): 5750 nM
